Values quoted from earlier work, collected in patent US20040171664A1, “Compositions of cyclooxygenase-2 selective inhibitors and selective serotonin reuptake inhibitors for the treatment or prevention of a vaso-occlusive event” (Pharmacia Corporation, priority 2002, published 2004).

Experiments:
platelet activation = conditions: Pollock et al. 2000
[1] = both depressed and nondepressed patients
restenosis = conditions: orally administered, stent implanted pig arteries
[2] = system: vascular smooth muscle cells; conditions: in vitro
[3] = system: coronary intimal proliferation; conditions: oral administration, swine model of restenosis
[4] = single dose intravenous pretreatment before coronary stenting

SMILES: CN[C@H]1CC[C@@H](c2ccc(Cl)c(Cl)c2)c2ccccc21 [sertraline]
- preventing platelet activation (platelet activation): particularly effective

SMILES: CNCCC(Oc1ccc(C(F)(F)F)cc1)c1ccccc1 (stereo not shown) [fluoxetine]
- survival of stroke patients [1]: increased the survival

SMILES: CNCCC=C1c2ccccc2CCc2ccccc21 [nortriptyline]
- survival of stroke patients [1]: increased the survival

SMILES: COc1ccc(C=CC(=O)Nc2ccccc2C(=O)O)cc1OC [tranilast, N-(3,4-dimethoxycinnamoyl) anthranilic acid]
- rate of restenosis (restenosis): lower rate

SMILES: COc1cc(/C=C/C(=O)CC(=O)/C=C/c2ccc(O)c(OC)c2)ccc1O [curcumin]
- proliferation of vascular smooth muscle cells [2]: reduced

SMILES: CN(C)CCCO[C@@H]1[C@H]2OC(C)(C)O[C@H]2O[C@@H]1[C@H](O)CO.Cl [aniprilose hydrochloride]
- coronary intimal proliferation [3]: did not prevent

SMILES: C[C@H]1C[C@@H]2[C@H]([C@@H](O)C[C@@]3(C)[C@H]2CC[C@]3(O)C(=O)CO)[C@@]2(C)C=CC(=O)C=C12 [methylpridnisolone]
- change in minimal lumen diameter at 6 months [4]: no effect
